In ChEMBL document CHEMBL6103629 (J Med Chem, 2025):

Key:
NCI-H1703 = test: Antitumor activity against human NCI-H1703 cells xenografted in female Balb/c nude mouse assessed as tumor growth inhibition at 50 mg/kg […] administered as 3 days on and 4 days off schedule for 4 weeks relative to control; format: functional; conditions: NCI-H1703, 672 h, time 28 day, read-out: TGI
CWR22R = test: Antiproliferative activity against human 22Rv1 cells incubated for 120 hrs by Cell-titer Glo luminescent assay; conditions: 22Rv1, 120 h
[1] = target: Serine/threonine-protein kinase ATR (Homo sapiens, UniProt Q13535); test: Inhibition of ATR (unknown origin) assessed as reduction in p53 phosphorylation level incubated for 30 mins by TR-FRET assay
LoVo = test: Antiproliferative activity against human LoVo cells assessed as reduction in cell viability incubated for 120 hrs by Cell-titer Glo luminescent assay
NCI-H146 = test: Antiproliferative activity against human NCI-H146 cells; format: functional, cell-based

Serine/threonine-protein kinase ATR, sequence (Q13535 whole entry): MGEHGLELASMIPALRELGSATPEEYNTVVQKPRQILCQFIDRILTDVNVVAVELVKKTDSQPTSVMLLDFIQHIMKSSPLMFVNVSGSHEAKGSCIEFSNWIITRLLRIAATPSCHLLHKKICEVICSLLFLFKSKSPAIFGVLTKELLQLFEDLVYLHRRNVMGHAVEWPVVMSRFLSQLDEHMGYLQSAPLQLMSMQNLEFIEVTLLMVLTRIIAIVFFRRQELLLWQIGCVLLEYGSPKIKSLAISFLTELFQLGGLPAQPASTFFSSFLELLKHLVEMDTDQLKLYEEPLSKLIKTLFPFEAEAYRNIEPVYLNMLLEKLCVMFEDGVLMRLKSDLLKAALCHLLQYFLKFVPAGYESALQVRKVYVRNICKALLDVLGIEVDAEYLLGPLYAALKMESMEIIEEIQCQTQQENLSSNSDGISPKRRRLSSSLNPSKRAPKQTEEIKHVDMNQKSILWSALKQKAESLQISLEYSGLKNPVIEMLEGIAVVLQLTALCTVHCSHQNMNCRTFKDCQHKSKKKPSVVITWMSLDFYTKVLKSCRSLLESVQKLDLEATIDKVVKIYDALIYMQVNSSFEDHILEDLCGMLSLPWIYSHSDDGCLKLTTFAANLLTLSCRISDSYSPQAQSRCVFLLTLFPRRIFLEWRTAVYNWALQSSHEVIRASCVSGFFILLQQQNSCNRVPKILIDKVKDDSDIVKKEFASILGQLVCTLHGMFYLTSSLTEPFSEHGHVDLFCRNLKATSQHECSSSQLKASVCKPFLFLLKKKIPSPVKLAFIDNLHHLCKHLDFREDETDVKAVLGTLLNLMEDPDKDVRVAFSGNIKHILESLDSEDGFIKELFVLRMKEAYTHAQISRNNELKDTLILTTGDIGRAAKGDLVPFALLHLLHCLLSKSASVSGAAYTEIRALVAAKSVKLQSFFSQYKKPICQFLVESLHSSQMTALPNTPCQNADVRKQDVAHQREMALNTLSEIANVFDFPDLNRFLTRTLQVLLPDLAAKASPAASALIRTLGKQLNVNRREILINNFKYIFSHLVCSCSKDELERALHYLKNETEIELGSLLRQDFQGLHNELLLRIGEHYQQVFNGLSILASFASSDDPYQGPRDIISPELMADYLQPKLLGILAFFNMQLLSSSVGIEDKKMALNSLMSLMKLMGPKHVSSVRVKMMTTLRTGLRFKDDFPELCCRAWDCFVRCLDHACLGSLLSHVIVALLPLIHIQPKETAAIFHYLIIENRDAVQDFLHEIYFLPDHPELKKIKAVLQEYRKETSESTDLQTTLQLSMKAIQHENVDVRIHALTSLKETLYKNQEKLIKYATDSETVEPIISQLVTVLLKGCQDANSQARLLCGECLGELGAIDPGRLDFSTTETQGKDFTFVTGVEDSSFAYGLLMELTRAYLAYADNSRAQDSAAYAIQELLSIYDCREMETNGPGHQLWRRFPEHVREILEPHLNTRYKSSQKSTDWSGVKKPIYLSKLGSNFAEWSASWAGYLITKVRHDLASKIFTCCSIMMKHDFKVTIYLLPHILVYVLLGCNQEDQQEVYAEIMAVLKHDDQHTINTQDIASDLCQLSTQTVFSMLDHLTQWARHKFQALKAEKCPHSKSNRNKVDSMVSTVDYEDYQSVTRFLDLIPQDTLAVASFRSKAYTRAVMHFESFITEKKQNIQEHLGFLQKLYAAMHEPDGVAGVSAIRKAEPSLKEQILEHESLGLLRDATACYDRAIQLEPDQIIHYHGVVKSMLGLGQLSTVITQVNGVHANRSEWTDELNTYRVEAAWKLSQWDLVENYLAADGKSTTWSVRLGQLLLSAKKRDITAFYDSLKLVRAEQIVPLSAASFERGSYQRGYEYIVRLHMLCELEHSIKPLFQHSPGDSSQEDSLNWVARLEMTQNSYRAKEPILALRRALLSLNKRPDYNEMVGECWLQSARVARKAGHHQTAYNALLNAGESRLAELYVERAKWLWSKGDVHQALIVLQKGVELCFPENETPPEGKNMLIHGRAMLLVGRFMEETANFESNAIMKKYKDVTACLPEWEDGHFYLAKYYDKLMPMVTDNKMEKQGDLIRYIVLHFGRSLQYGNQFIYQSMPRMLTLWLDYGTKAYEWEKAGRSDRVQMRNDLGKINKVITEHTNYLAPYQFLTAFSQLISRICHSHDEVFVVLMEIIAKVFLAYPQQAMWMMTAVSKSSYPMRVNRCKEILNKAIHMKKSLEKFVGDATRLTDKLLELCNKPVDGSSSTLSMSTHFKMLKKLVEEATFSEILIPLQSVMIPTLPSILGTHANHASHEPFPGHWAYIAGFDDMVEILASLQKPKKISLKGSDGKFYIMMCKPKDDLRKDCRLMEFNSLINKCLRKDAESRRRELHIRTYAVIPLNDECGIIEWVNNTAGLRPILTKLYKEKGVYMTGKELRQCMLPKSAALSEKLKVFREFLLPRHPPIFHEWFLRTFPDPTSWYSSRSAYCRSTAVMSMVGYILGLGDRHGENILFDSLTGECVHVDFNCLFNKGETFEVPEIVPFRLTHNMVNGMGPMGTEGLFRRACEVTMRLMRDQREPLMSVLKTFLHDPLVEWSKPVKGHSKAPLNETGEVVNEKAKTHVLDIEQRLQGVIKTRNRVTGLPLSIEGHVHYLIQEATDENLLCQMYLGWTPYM

| SMILES | IC50 (CWR22R) | also measured |
| --- | --- | --- |
| Nc1ccn([C@@H]2O[C@H](CO)[C@@H](O)C2(F)F)c(=O)n1 [GEMCITABINE] | – | inhibition in vivo at 50 mg/kg (NCI-H1703): 76.7% |
| CCOc1cncc(-n2nc(C)c(-c3cc(N4CC5CCC(C4)O5)nc4c(-c5ccn[nH]5)cnn34)c2C)c1 | 515 nM | – |
| Cc1n[nH]c(C)c1-c1cc(N2CC3CCC(C2)O3)n2ncc(-c3cnn(C)c3C)c2n1 | > 10000 nM | IC50 [1]: > 500 nM |
| Cc1nn(C2CCNCC2)c(C)c1-c1cc(N2CC3CCC(C2)O3)nc2c(-c3ccn[nH]3)cnn12 | 4340 nM | – |
| Cc1nn(-c2cncc(F)c2)c(C)c1-c1cc(N2CC3CCC(C2)O3)nc2c(-c3ccn[nH]3)cnn12 | 1330 nM | – |
| Cc1n[nH]c(C)c1-c1nc(N2CCOC[C@H]2C)c2nc(-c3cccc4[nH]ccc34)ccc2n1 | – | IC50 (LoVo): 246 nM |
| Cn1cncc1-c1c(F)cncc1NC(=O)c1c(N)nn2cc(F)cnc12 [TUVUSERTIB] | – | IC50 (NCI-H146): 730 nM; IC50 [1]: < 1000 nM |
| Cc1nn(-c2ccc(N)nc2)c(C)c1-c1cc(N2CC3CCC(C2)O3)nc2c(-c3ccn[nH]3)cnn12 | 199 nM | – |
| Cc1nn(-c2cncc(Br)c2)c(C)c1-c1cc(N2CC3CCC(C2)O3)nc2c(-c3ccn[nH]3)cnn12 | 437 nM | – |
| Cc1nn(-c2cncc(C(F)(F)F)c2)c(C)c1-c1cc(N2CC3CCC(C2)O3)nc2c(-c3ccn[nH]3)cnn12 | 2820 nM | – |
| Cc1cc(-c2cnn3c(-c4c(C)nn(-c5cccnc5)c4C)cc(N4CC5CCC(C4)O5)nc23)[nH]n1 | 150 nM | – |
| Cc1nn(-c2cccnc2)c(C)c1-c1cc(N2C[C@@H]3C[C@H]2CO3)nc2c(-c3ccn[nH]3)cnn12 | 4080 nM | – |
| Cc1nn(-c2cncc(C(F)F)c2)c(C)c1-c1cc(N2CC3CCC(C2)O3)nc2c(-c3ccn[nH]3)cnn12 | 972 nM | – |
| Cc1nn(-c2cccnc2)c(C)c1-c1cc(N2C3CCC2COC3)nc2c(-c3ccn[nH]3)cnn12 | 332 nM | – |
| Cc1n[nH]c(C)c1-c1cc(N2CC3CCC(C2)O3)n2ncc(-c3cnn(C)c3)c2n1 | 943 nM | – |
| Cc1nn(-c2cccnc2)c(C)c1-c1cc(N2C[C@H]3C[C@@H]2CO3)nc2c(-c3ccn[nH]3)cnn12 | > 10000 nM | – |
| Cc1nn(-c2cncc(C#N)c2)c(C)c1-c1cc(N2CC3CCC(C2)O3)nc2c(-c3ccn[nH]3)cnn12 | 1410 nM | – |
